Biological target: T1, human CaSR (Homo sapiens, UniProt P41180)
T1 sequence (P41180 20-1078): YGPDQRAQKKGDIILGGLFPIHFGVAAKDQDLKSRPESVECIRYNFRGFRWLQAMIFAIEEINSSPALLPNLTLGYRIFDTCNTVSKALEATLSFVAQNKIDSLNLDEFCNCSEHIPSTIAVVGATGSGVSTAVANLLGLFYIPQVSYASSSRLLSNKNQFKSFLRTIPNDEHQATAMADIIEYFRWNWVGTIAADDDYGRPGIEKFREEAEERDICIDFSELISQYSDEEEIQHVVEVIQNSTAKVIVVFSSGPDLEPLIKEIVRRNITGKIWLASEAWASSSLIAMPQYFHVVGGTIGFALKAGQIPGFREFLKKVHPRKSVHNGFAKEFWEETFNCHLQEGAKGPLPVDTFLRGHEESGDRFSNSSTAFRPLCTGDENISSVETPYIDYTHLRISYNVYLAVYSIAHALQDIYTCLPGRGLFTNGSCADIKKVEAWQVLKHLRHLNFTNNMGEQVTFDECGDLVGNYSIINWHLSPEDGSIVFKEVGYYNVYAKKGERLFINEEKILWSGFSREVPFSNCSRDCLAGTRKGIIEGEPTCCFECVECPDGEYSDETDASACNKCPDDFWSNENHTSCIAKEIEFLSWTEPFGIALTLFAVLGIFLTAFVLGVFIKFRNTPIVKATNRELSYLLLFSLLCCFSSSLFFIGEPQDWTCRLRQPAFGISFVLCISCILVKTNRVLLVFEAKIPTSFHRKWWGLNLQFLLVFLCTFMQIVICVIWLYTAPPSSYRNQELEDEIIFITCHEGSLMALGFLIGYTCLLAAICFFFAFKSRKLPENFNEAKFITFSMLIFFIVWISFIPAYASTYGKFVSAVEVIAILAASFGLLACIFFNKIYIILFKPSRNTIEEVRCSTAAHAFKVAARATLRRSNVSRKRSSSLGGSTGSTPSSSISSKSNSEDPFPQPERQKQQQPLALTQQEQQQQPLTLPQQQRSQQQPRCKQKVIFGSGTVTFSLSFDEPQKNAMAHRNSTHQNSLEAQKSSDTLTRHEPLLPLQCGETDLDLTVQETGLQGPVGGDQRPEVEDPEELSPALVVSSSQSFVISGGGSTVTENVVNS
Test: Functional whole cell assay (modulation of human CaSR), IP1 accumulation in CHO-K1 cells
Assay type: cell-based
Conditions: CHO-K1 cells stably expressing human CaSR, final Ca2+ 1.9 mM, IP1 (IP-One htrf)
Excerpt: The assay investigates a compound's functional ability to act as a biological positive modulator on the human CaSR. Activation of the receptor expressed on CHO-K1 cells is detected through the G alpha q pathway, the activation of phospholipase C and the accumulation of intracellular inositol phosphate (IP) as described earlier [Sandrine Ferry, Bruno Chatel, Robert H. Dodd, Christine Lair, Danielle Gully, Jean-Pierre Maffrand, and Martial Ruat. Effects of Divalent Cations and of a Calcimimetic on Adrenocorticotropic Hormone Release in Pituitary Tumor Cells. Biological and Biophysical Research Comm., 238, 866-873 (1997)]. The human CaSR is stably expressed on a CHO-K1 cell clone, stimulated with a basal level of calcium and challenged with the tested compound. The level of IP1 is determined using the IP-One Terbium htrf kit (Cisbio, France). CHO-K1 cells not transfected with the CaSR fail to elicit an IP1 response upon calcium and/or compound stimulation.
The ORF coding for the human CaSR (genebank: NM_000388) was acquired from Invitrogen Corp, USA and subsequently cloned into the mammalian expression vector pCDA3.1.
CHO-K1 cells were transfected using Lipofectamine according to manufacturer's protocol (400.000 cells/well were seeded in a 6-well plate and transfected after 24 hours using 2 μg DNA and 5 μl lipofectamine). After another 24 hours the cells were detached, seeded and subjected to 1mg/ml of G-418. Following 7 days growth single clones were picked, the CaSR expression evaluated using the 5C10 antibody against CaSR, the clones with the highest expression were selected and tested for functional response. The preferred clone was cultured according to standard procedures described in ATCC (American Type Culture Collection) protocols for CHO-K1 with the addition of 500 μg/ml G-418.
On the assay day, cells were thawed, harvested and resuspended to 4*10^6 cells/ml in stimulation buffer (containing: Hepes 10mM, MgCl2 0.5mM, KCl 4.2 mM, NaCl 146 mM, glucose 5.5 mM, LiCl 50 mM, BSA 0.5% at pH 7.4). Ten μl cell solution was pipetted into wells of a white 384-well plate (Perkin Elmer Optiplate) containing 2 μl compound diluted in assay buffer (containing: Hepes 10 mM, MgCl2 0.5mM, KCl 4.2mM, NaCl 146mM, glucose 5.5 mM, LiCl 50 mM, CaCl2 11.4 mM at pH 7.4), resulting in a final Ca^2+ concentration of 1.9 mM. After compound stimulation for 1 hour at 37° C. and 15 min at room temperature, 10 ul of IP-One assay detection reagent (prepared as described by the IP-One assay kit manufacturer) was added and the plate was incubated for another 1 hour at room temperature. Finally the plate was read using a Perkin Elmer EnVision, according to the protocol supplied by the IP-One assay kit manufacturer. The FRET ratio was calculated by dividing the 665 nm emission signal with that of the 615 nm.
The molar concentration of a compound that produces 50% of the maximum agonistic response (the […] value) is calculated according to the equation “General sigmoidal curve with Hill slope, a to d” (Equation 1). This model describes a sigmoidal curve with an adjustable baseline. The equation can be used to fit curves where response is either increasing or decreasing with respect to the independent variable, X. […]
y=(a−d)/(1+(x/c)̂b)+d Equation 1. x=concentration of tested compound […]
a=min response as compound concentration approaches 0 d=max response as concentration of tested compound is increasing […]
b=Hill coefficient or curve slope
Assay results using compounds of the present invention indicate that compounds of the present invention are potent modulators of CaSR, thus making them potentially useful in the treatment of diseases related to kidneys or bones.

Structure (SMILES) | EC50 [nM]
C[C@@H](N[C@H]1CC[C@@H](c2ccc(CC(=O)NCCS(N)(=O)=O)cc2)C1)c1cccc2c1OCO2 [Compound 104, 2-[4-[(1R,3S)-3-[[(1R)-1-(1,3-Benzodioxol-4-yl)ethyl]amino]-cyclo-pentyl]-phenyl]-N-(2-sulfamoylethyl)acetamide] | < 200
COc1cc([C@@H](C)N[C@H]2CC[C@@H](c3ccc(CC(=O)NCCNS(C)(=O)=O)cc3)C2)ccc1F [Compound 102, 2-[4-[(1R,3S)-3-[[(1R)-1-(4-Fluoro-3-methoxy-phenyl)ethyl]amino]-cyclopentyl]phenyl]-N-[2-(methanesulfonamido)ethyl]acetamide; formic acid] | 200 to 1000
COc1cc([C@@H](C)N[C@H]2CC[C@@H](c3ccc(CC(=O)N4CCC(N)CC4)cc3)C2)ccc1F [Compound 112, 1-(4-Amino-1-piperidyl)-2-[4-[(1R,3S)-3-[[(1R)-1-(4-fluoro-3-methoxy-phenyl)ethyl]amino]cyclopentyl]phenyl]ethanone] | < 200
CCOc1cccc([C@@H](C)N[C@H]2CC[C@@H](c3ccc(CC(=O)NCCS(N)(=O)=O)cc3)C2)c1 [Compound 106, 2-[4-[(1R,3S)-3-[[(1R)-1-(3-Ethoxyphenyl)ethyl]amino]cyclopentyl]phenyl]-N-(2-sulfamoylethyl)acetamide] | < 200
COc1cc([C@@H](C)N[C@H]2CC[C@@H](c3ccc(CC(=O)N4CC(O)C4)cc3)C2)ccc1F [Compound 109, 2-[4-[(1R,3S)-3-[[(1R)-1-(4-Fluoro-3-methoxy-phenyl)ethyl]amino]-cyclopentyl]phenyl]-1-(3-hydroxyazetidin-1-yl)ethanone] | < 200
COc1cc([C@@H](C)N[C@H]2CC[C@@H](c3ccc(CC(=O)NCCS(N)(=O)=O)cc3)C2)ccc1F [Compound 103, 2-[4-[(1R,3S)-3-[[(1R)-1-(4-Fluoro-3-methoxy-phenyl)ethyl]amino]-cyclopentyl]phenyl]-N-(2-sulfamoylethyl)acetamide; formic acid] | < 200
COc1cc([C@@H](C)N[C@H]2CC[C@@H](c3ccc(CC(=O)NCCNCCO)cc3)C2)ccc1F [Compound 108, 2-[4-[(1R,3S)-3-[[(1R)-1-(4-Fluoro-3-methoxy-phenyl)ethyl]amino]-cyclopentyl]phenyl]-N-[2-(2-hydroxyethylamino)ethyl]acetamide] | < 200
COc1cc([C@@H](C)N[C@H]2CC[C@@H](c3ccc(CC(=O)N4CCCNCC4)cc3)C2)ccc1F [Compound 110, 1-(1,4-Diazepan-1-yl)-2-[4-[(1R,3S)-3-[[(1R)-1-(4-fluoro-3-methoxy-Phenyl)ethyl]amino]cyclopentyl]phenyl]ethanone] | < 200
